Measured values from PubChem BioAssay (NCI).
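Briefly, cells in 96-well plates were exposed to five compound concentrations for 48 h, and endpoints were estimated by linear interpolation. TGI: total growth inhibition.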

Key:
Assay in all cases: NCI tumour cell line growth inhibition, 48 h
[1] = system: HOP-62 NSCLC
[2] = system: HT29 colon
[3] = system: KM12 colon
[4] = system: LOX IMVI melanoma
[5] = system: SF-539 CNS
[6] = system: SK-MEL-2 melanoma
[7] = system: SK-MEL-5 melanoma
[8] = system: SW-620 colon
[9] = system: UACC-257 melanoma
[10] = system: UACC-62 melanoma

SMILES: O=C(Nc1ccc([N+](=O)[O-])cc1[N+](=O)[O-])C(=O)C(C(=O)c1ccc2ccccc2c1)C1OC(=O)c2ccccc21 (configuration not stated)
- TGI [1]: 68.4 µM
- TGI [2]: 36.4 µM
- TGI [3]: 40.3 µM
- TGI [4]: 37.6 µM
- TGI [5]: 18.6 µM
- TGI [6]: 43.4 µM
- TGI [7]: 31.6 µM
- TGI [8]: 30.9 µM
- TGI [9]: 58 µM
- TGI [10]: 30.2 µM

SMILES: CN(C)CCNC(=O)c1cccc2ccc(-c3ccc(F)cc3)nc12
- TGI [1]: 27.8 µM
- TGI [2]: 17 µM
- TGI [3]: 33.4 µM
- TGI [4]: 9.88 µM
- TGI [5]: 14.9 µM
- TGI [6]: 21.3 µM
- TGI [7]: 11.1 µM
- TGI [8]: 21 µM
- TGI [9]: 17.9 µM
- TGI [10]: 13.4 µM

SMILES: Nc1n[nH]c(=O)c2c1c(I)cn2C1OC(CO)C(O)C1O (configuration not stated)
- TGI [1]: 21.5 µM
- TGI [2]: 67.8 µM
- TGI [3]: > 100 µM
- TGI [4]: 10.6 µM
- TGI [6]: 0.049 µM
- TGI [7]: 13.6 µM
- TGI [8]: > 100 µM
- TGI [9]: 13.4 µM
- TGI [10]: 13.3 µM

SMILES: Oc1cn(-c2ccc(Cl)cc2)nc1-c1n[nH]c(=S)n1-c1ccccc1
- TGI [1]: 22.7 µM
- TGI [2]: 44 µM
- TGI [3]: 31.8 µM
- TGI [5]: 23.1 µM
- TGI [6]: 52.7 µM
- TGI [7]: 15.4 µM
- TGI [8]: 20.4 µM
- TGI [9]: > 100 µM
- TGI [10]: 28 µM

SMILES: CC(C)(C)[Si](C)(C)Oc1ccc(C2CNC(=O)C23CCC(=O)N3Cc2ccccc2)cc1 (configuration not stated)
- TGI [1]: 53.3 µM
- TGI [2]: 24.8 µM
- TGI [3]: > 100 µM
- TGI [4]: 41.2 µM
- TGI [5]: 30.7 µM
- TGI [6]: 35.5 µM
- TGI [7]: 19.6 µM
- TGI [8]: 31.1 µM
- TGI [9]: 25.7 µM
- TGI [10]: 32 µM

SMILES: Cc1cc2c(cc1C(=O)c1ccc(N)cc1)OCO2
- TGI [1]: > 100 µM
- TGI [2]: 61.3 µM
- TGI [3]: > 100 µM
- TGI [5]: 79.7 µM
- TGI [6]: 74 µM
- TGI [7]: 61.4 µM
- TGI [8]: > 100 µM
- TGI [9]: > 100 µM
- TGI [10]: > 100 µM

SMILES: COc1cc(/C=C/C(=O)Oc2ccc(NC(C)=O)cc2)ccc1C(=O)O/C=C/c1ccccc1
- TGI [1]: > 100 µM
- TGI [2]: > 100 µM
- TGI [3]: > 100 µM
- TGI [4]: > 100 µM
- TGI [5]: > 100 µM
- TGI [6]: > 100 µM
- TGI [7]: > 100 µM
- TGI [8]: > 100 µM
- TGI [9]: > 100 µM
- TGI [10]: > 100 µM

SMILES: CC(=O)O[C@H]1CC[C@@]2(C)C(=CC[C@H]3[C@@H]4C/C(=C\c5ccc(N(C)C)cc5)[C@H](OC(C)=O)[C@@]4(C)CC[C@@H]32)C1
- TGI [1]: 51.6 µM
- TGI [2]: 34.2 µM
- TGI [3]: > 100 µM
- TGI [4]: 20.8 µM
- TGI [5]: 27.9 µM
- TGI [6]: 22.5 µM
- TGI [7]: 74.9 µM
- TGI [8]: 46.4 µM
- TGI [9]: 21.4 µM
- TGI [10]: 20.7 µM

SMILES: COc1ccc(C2=C3SC=c4ccccc4=C3ON=C2c2ccccc2)cc1
- TGI [1]: > 100 µM
- TGI [2]: > 100 µM
- TGI [3]: > 100 µM
- TGI [4]: > 100 µM
- TGI [5]: > 100 µM
- TGI [6]: > 100 µM
- TGI [7]: > 100 µM
- TGI [8]: > 100 µM
- TGI [9]: > 100 µM
- TGI [10]: > 100 µM

SMILES: CCC(=O)O[C@H]1CC[C@H]2[C@@H]3CCC4=C/C(=N/OC(=O)c5cccc6cc7ccccc7nc56)CC[C@]4(C)[C@H]3CC[C@]12C
- TGI [1]: > 100 µM
- TGI [2]: > 100 µM
- TGI [3]: > 100 µM
- TGI [4]: > 100 µM
- TGI [5]: > 100 µM
- TGI [6]: > 100 µM
- TGI [7]: 31.5 µM
- TGI [8]: > 100 µM
- TGI [9]: > 100 µM
- TGI [10]: > 100 µM

SMILES: O=C1NI(C#Cc2ccccc2)c2ccccc21
- TGI [1]: > 100 µM
- TGI [2]: > 100 µM
- TGI [3]: > 100 µM
- TGI [4]: > 100 µM
- TGI [5]: > 100 µM
- TGI [6]: > 100 µM
- TGI [7]: > 100 µM
- TGI [8]: > 100 µM
- TGI [9]: > 100 µM
- TGI [10]: > 100 µM

SMILES: Cc1c2cccc-2c(OCCO)cc2c3ccccc3n(C)c12
- TGI [1]: 16.1 µM
- TGI [2]: 18.3 µM
- TGI [3]: 12.9 µM
- TGI [4]: 8.15 µM
- TGI [5]: 5.92 µM
- TGI [6]: 12.8 µM
- TGI [7]: 5.77 µM
- TGI [8]: 67.3 µM
- TGI [9]: 17.6 µM
- TGI [10]: 17.5 µM

SMILES: C[C@H]1C(=O)O[C@@H]2CCN3CC=C(COC(=O)[C@](C)(O)[C@@]1(C)O)[C@H]23
- TGI [1]: > 100 µM
- TGI [2]: > 100 µM
- TGI [3]: > 100 µM
- TGI [4]: > 100 µM
- TGI [5]: > 100 µM
- TGI [6]: > 100 µM
- TGI [7]: > 100 µM
- TGI [8]: > 100 µM
- TGI [9]: > 100 µM
- TGI [10]: > 100 µM

SMILES: Nc1ccccc1N=Cc1cc2cc([N+](=O)[O-])ccc2s1
- TGI [1]: 31.7 µM
- TGI [2]: > 100 µM
- TGI [3]: > 100 µM
- TGI [4]: 97.9 µM
- TGI [5]: 27.4 µM
- TGI [6]: 37.3 µM
- TGI [7]: > 100 µM
- TGI [8]: > 100 µM
- TGI [9]: 51.2 µM
- TGI [10]: 38.1 µM

SMILES: CCc1nc(N)nc(N)c1-c1ccc([N+](C)(C)C)cc1
- TGI [1]: > 100 µM
- TGI [2]: > 100 µM
- TGI [3]: > 100 µM
- TGI [4]: > 100 µM
- TGI [5]: > 100 µM
- TGI [6]: > 100 µM
- TGI [7]: > 100 µM
- TGI [8]: > 100 µM
- TGI [9]: > 100 µM
- TGI [10]: > 100 µM

SMILES: FC(F)(F)c1ccc2c(c1)nc(-c1ccc(Cl)cc1)n2CC1CCCN2CCCCC12 (configuration not stated)
- TGI [1]: 28.6 µM
- TGI [2]: 19 µM
- TGI [3]: 41.8 µM
- TGI [4]: 29.8 µM
- TGI [5]: 28.8 µM
- TGI [6]: 30.2 µM
- TGI [7]: 27.1 µM
- TGI [8]: 38.1 µM
- TGI [9]: 28.7 µM
- TGI [10]: 28.1 µM
